Literature values as cited in patent publication US8759216B2, “Compositions and methods for polishing silicon nitride materials” (Cabot Microelectronics Corporation, priority 2006, dated 2014).
Where two headings read alike, the source gives them in different places.

| Structure (SMILES) | pKa (first listed pKa value) | pKa (second listed pKa value) |
| --- | --- | --- |
| O=C(O)CCCC(=O)O [glutaric] | 4.34 | 5.41 |
| OP(O)O [phosphorous, phosphorous acid] | 2.00 | 6.59 |
| O=C(O)c1ccccc1C(=O)O [phthalic, phthalic acid] | 2.89 | 5.51 |
